{"source": "patent US20120208746A1", "about": "“GENETIC MARKERS ASSOCIATED WITH RESPONSE TO CYCLOPHILIN-BINDING COMPOUNDS” (priority 2011, published 2012)", "key": {"[1]": {"conditions": "human, in vivo, 300 mg", "text": "Blood and urine samples were collected from human subjects on Days 1, 2, 3, and 14 during the 8-hour interval immediately following administration of the first dose on each specified study day. In addition, blood samples for the measurement of trough drug concentrations were collected from all human subjects immediately prior to the administration of SCY-635 on the mornings of Days 4, 5, 8, 11, 12, and 15, and prior to the evening dose on Day 13.\nPlasma samples for the determination of SCY-635 concentrations were taken throughout the 8-hour interval immediately following administration of the first dose of study medication on treatment days 1, 2, and 3. In FIGS. 8A-11B, the squares correspond to SCY-635 plasma concentrations following dose 1 on Study Day 1, dose 1 on Study Day 2, and dose 1 on Study Day 3. The left Y-axis contains the scale for the absolute plasma concentration of SCY-635. The diamond symbols correspond to the plasma concentrations for the various interferons. The opposing (right) Y-axis contains the scale for the absolute concentration of each respective interferon."}, "interferon beta (IFN-β)": {"tested_on": "interferon beta (IFN-β)", "assay": "Plasma IFN-β concentration (ELISA) in HCV patients given SCY-635", "type": "in vivo, human", "conditions": "total daily dose 900 milligrams, all subjects", "protocol": "Plasma pharmacokinetic samples were obtained from all subjects who received a 900 milligram total daily dose of SCY-635 (given as 300 mg t.i.d.). The samples were analyzed by ELISA to determine their concentrations of interferon alpha (IFN-α), interferon beta (IFN-β), interferon lambda-1 (IFN-λ1/IL-29), and interferon lambda-3 (IFN-λ3/IL-28B).\nPlasma samples for the determination of SCY-635 concentrations were taken throughout the 8-hour interval immediately following administration of the first dose of study medication on treatment days 1, 2, and 3. In FIGS. 8A-11B, the squares correspond to SCY-635 plasma concentrations following dose 1 on Study Day 1, dose 1 on Study Day 2, and dose 1 on Study Day 3. The left Y-axis contains the scale for the absolute plasma concentration of SCY-635. The diamond symbols correspond to the plasma concentrations for the various interferons. […]\nThe plasma concentrations of neopterin and 2′5′OAS1 (markers of innate immune activation) and interferons α, β, λ1 (1L29), and λ3 (IL28B) were quantified from patient samples using commercially available ELISA-based assays. […]\nThe plasma concentrations of neopterin and 2′5′OAS-1 (markers of innate immune activation) and interferons α, β, λ1 (IL29) and λ3 (IL28) were quantified from patient samples using commercially available ELISA-based assays. […]"}, "human OAS1": {"tested_on": "human OAS1", "assay": "Plasma OAS1 (2′5′OAS-1) concentration (ELISA) in HCV patients given SCY-635", "type": "in vivo", "conditions": "900 mg/d, all subjects", "protocol": "Blood plasma samples were taken from patients in Example 1 (see above) prior to dosing of SCY-635 and at time periods through the end of the fifteen days treatment and were tested using a Enzyme-linked Immunosorbent Assay (ELISA) kit for human OAS1 (obtained from Uscn Inc., the E92684Hu 96 Test). The kit is a sandwich enzyme immunoassay for the in vitro quantitative measurement of human OAS1 in serum, plasma and other biological fluids.\nThe microtiter plate provided in the kit has been pre-coated with a monoclonal antibody specific to OAS1. Standards or samples are then added to the appropriate microtiter plate wells with a biotin-conjugated polyclonal antibody preparation specific for OAS1. […] The enzyme-substrate reaction is terminated by the addition of a sulfuric acid solution and the color change is measured spectrophotometrically at a wavelength of 450 nm±10 nm. The concentration of OAS1 in the samples is then determined by comparing the optical density of the samples to the standard curve sample.\nTo calculate the results, the average for the duplicate readings for each standard, control, and sample (single reading) were taken and the average zero standard optical density was subtracted. A best fit straight line with OAS1 concentration on the y-axis and absorbance on the x-axis was drawn. […]"}, "neopterin": {"tested_on": "neopterin", "assay": "Plasma neopterin concentration (ELISA) in HCV patients given SCY-635", "type": "in vivo, human", "conditions": "900 mg/d, all subjects", "protocol": "The plasma concentrations of neopterin and 2′5′OAS1 (markers of innate immune activation) and interferons α, β, λ1 (1L29), and λ3 (IL28B) were quantified from patient samples using commercially available ELISA-based assays. IL28B genotyping was performed using real time PCR with allele-specific Taqman probes to detect a single nucleotide polymorphism rs12979860 C/T on chromosome […].\nThe plasma concentrations of neopterin and 2′5′OAS-1 (markers of innate immune activation) and interferons α, β, λ1 (IL29) and λ3 (IL28) were quantified from patient samples using commercially available ELISA-based assays. IL28B genotyping was performed using real time PCR with allele-specific Taqman probes to detect a single nucleotide polymorphism rs12979860 C/T on chromosome […]. Informed consent was obtained from all subjects who participated in the study."}, "interferon Beta": {"tested_on": "interferon Beta", "assay": "Plasma interferon beta in normal healthy volunteers given SCY-635", "type": "in vivo, human", "conditions": "500 mg b.i.d., 14 days", "protocol": "(§1) To establish whether the treatment-associated stimulation of endogenous interferon production is a virus dependent phenomenon, normal healthy volunteers who received SCY-635 at a total daily dose of 1,000 milligrams (500 mg b.i.d.) in a clinical study over 14 days can have samples taken and analyzed to determine their IL28B genotype and to assay for the presence of endogenous interferons."}, "[2]": {"tested_on": "interferon Lambda 1 (IL29)", "assay": "Plasma interferon Lambda 1 (IL29) in normal healthy volunteers given SCY-635", "type": "in vivo, human", "conditions": "500 mg b.i.d., 14 days", "protocol": "as §1"}, "2′-5′ OAS": {"tested_on": "2′-5′ OAS", "assay": "2′-5′ OAS induction in subgenomic con1b HuH7 cells", "type": "cell-based, human", "conditions": "SCY-635 2 μM or IFNα-2b 50 U/ml", "protocol": "Subgenomic con1b HuH7 and parent HuH7 cells were maintained in a humidified incubator at 37° C. in 5% CO2. Cells were cultured in Dulbecco's modified essential media (DMEM) supplemented with 10% fetal bovine serum (FBS), 1% penicillin-streptomycin, 1% glutamine, and 1% non-essential amino acids. Media for subgenomic con1b HuH7 cells also contained 5 mg/ml G418.\nSubgenomic replicon cells were plated into 6-well dishes at a starting density of 100,000 cells per well in the presence of G418. Parental HuH7 cells were plated in parallel at a starting density of 50,000 cells per well to obtain similar densities to replicon cells on days 3 and 4. Five plates of each cell line were prepared; plates were incubated overnight in a humidified incubator at 37° C. in 5% CO2.\nOne plate of each cell line was harvested as follows; • Centrifuged the 6-well plate at approximately 700×g for 10 min at 4° C. in swinging bucket rotor. • Removed the extracellular medium from each well and placed in a 5 ml cryovial. […]\nIFNλ1, which is the Interleukin 29 (IL29) gene product, and 2′-5′ Oligoadenylate Synthetase 1 (2′-5′ OAS) in cell supernatants were measured using the ELISA kit for IL29 or 2′-5′ OAS (USCN Life Sciences E92029Hu, E92684Hu) following the kit protocols. Combined IFNα levels were measured using the VeriPlex™ Human Interferon Multiplex ELISA kit (9-plex), following the kit protocols."}}, "note": "“Also recorded” adds a separate entry of the source.", "data": [{"smiles": "C/C=C/C[C@@H](C)[C@@H](O)[C@H]1C(=O)N[C@@H](CC)C(=O)N(C)[C@H](SCCN(C)C)C(=O)N(C)[C@@H](CC(C)(C)O)C(=O)N[C@@H](C(C)C)C(=O)N(C)[C@@H](CC(C)C)C(=O)N[C@@H](C)C(=O)N[C@H](C)C(=O)N(C)[C@@H](CC(C)C)C(=O)N(C)[C@@H](CC(C)C)C(=O)N(C)[C@@H](C(C)C)C(=O)N1C", "note": "[SCY-635, 3-[(R)-2-(N,N-dimethylamino)ethylthio-Sar]-4-(gamma-hydroxymethylleucine)cyclosporin]", "values": [{"measurement": "coefficient of variation (CV %) for plasma AUC0-8", "setting": "[1]", "value": 41.5, "unit": "%"}, {"measurement": "coefficient of variation (CV %) for plasma Cmax", "setting": "[1]", "value": 37.6, "unit": "%"}, {"measurement": "changes in the plasma concentration of IFN-β", "setting": "interferon beta (IFN-β)", "value": "inversely related to changes in the plasma concentration of SCY-635; also recorded: Treatment-associated decreases"}, {"measurement": "plasma concentration of 2′5′OAS1, change", "setting": "human OAS1", "value": "temporally coincident increases"}, {"measurement": "plasma concentration of neopterin, change", "setting": "neopterin", "value": "temporally coincident increases"}, {"measurement": "levels of interferon Beta", "setting": "interferon Beta", "value": "did not result in a substantial change"}, {"measurement": "levels of interferon Lambda 1", "setting": "[2]", "value": "did not result in a substantial change"}, {"measurement": "levels of 2′-5′ OAS", "setting": "2′-5′ OAS", "value": "increased levels"}]}]}
